≈ marks a conversion by molar mass, not a printed value.

What all share (format): functional
The subject of assay [1] is Mycobacterium tuberculosis. The assay can be described thus: Antitubercular activity against isoniazid-resistant Mycobacterium tuberculosis H37Rv ATCC 27294 assessed as growth inhibition after 16 to 24 hrs by microplate-Alamar Blue assay.
Assay [2] has as its system Mycobacterium tuberculosis. As to the kind of experiment: Antitubercular activity against moxifloxacin-resistant Mycobacterium tuberculosis H37Rv ATCC 27294 assessed as growth inhibition after 16 to 24 hrs by microplate-Alamar Blue assay.
Assay [3] deals with Mycobacterium tuberculosis. The assay can be described thus: Antitubercular activity against rifampin-resistant Mycobacterium tuberculosis H37Rv ATCC 27294 assessed as growth inhibition after 16 to 24 hrs by microplate-Alamar Blue assay. On the technique in general: Resazurin is reduced to fluorescent resorufin, in cell work by metabolically active cells.
For assay [4], the system named is Mycobacterium tuberculosis. The assay can be described thus: Antitubercular activity against capreomycin-resistant Mycobacterium tuberculosis H37Rv ATCC 27294 assessed as growth inhibition after 16 to 24 hrs by microplate-Alamar Blue assay.

On to `Fc1ccc(C(F)(F)F)cc1-c1csc(Nc2ccc(Cl)cc2)n1`, for which the MIC (in general, the least concentration at which growth counts as inhibited) was 10.4 µM (≈ 3.88 µg/mL) in assay [1], 15.5 µM (≈ 5.78 µg/mL) in assay [2], 10.9 µM (≈ 4.06 µg/mL) in assay [3] and 17.4 µM (≈ 6.49 µg/mL) in assay [4].
The corresponding values for `Fc1ccc(C(F)(F)F)cc1-c1csc(Nc2cc(Cl)cc(Cl)c2)n1` are 7.1 µM (≈ 2.89 µg/mL), 12 µM (≈ 4.89 µg/mL), 9.7 µM (≈ 3.95 µg/mL) and 12 µM (≈ 4.89 µg/mL).
The corresponding values for `NNC(=O)c1ccncc1` [ISONIAZID] are more than 8 µM, 3.6 µM (≈ 0.494 µg/mL), 0.85 µM (≈ 0.117 µg/mL) and 0.81 µM (≈ 0.111 µg/mL).
Taken in the same sequence, the figures for `O=[N+]([O-])c1cn2c(n1)OC[C@@H](OCc1ccc(OC(F)(F)F)cc1)C2` [PRETOMANID] were 0.43 µM (≈ 0.154 µg/mL), 0.88 µM (≈ 0.316 µg/mL), 0.51 µM (≈ 0.183 µg/mL) and 1.26 µM (≈ 0.453 µg/mL).
For `CO[C@H]1/C=C/O[C@@]2(C)Oc3c(C)c(O)c4c(O)c(c(/C=N/N5CCN(C)CC5)c(O)c4c3C2=O)NC(=O)/C(C)=C\C=C\[C@H](C)[C@H](O)[C@@H](C)[C@@H](O)[C@@H](C)[C@H](OC(C)=O)[C@@H]1C` [RIFAMPIN], the MIC in assay [1] was 0.06 µM (≈ 0.0494 µg/mL); in assay [2] it was 0.14 µM (≈ 0.115 µg/mL); in assay [3], more than 4 µM; in assay [4] it was 0.05 µM (≈ 0.0411 µg/mL).

Values taken from ChEMBL document CHEMBL3102705, “Design, synthesis and investigation on the structure-activity relationships of N-substituted 2-aminothiazole derivatives as antitubercular agents” (Eur J Med Chem, 2014).
